Values quoted from earlier work as cited in patent US7491312B2, “Identifying therapeutic compounds based on their physical-chemical properties” (Edison Pharmaceuticals, Inc., priority 2002, dated 2009).

Target: amyloid-β fibril formation (Homo sapiens, UniProt P05067)
Conditions: compounds with an apomorphine core structure (FIG. 8)

Sequence of amyloid-β fibril formation (P05067 672-711 limits assumed): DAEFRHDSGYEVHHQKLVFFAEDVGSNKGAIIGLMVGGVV

| Compound | reduction of fibril growth |
| --- | --- |
| COc1ccc2c(c1O)-c1cccc3c1C(C2)N(C)CC3 (centres unmarked) [apocodeine] | 5% |
| CN1CCc2cccc3c2[C@H]1Cc1ccc(O)c(O)c1-3 [apomorphine] | 99% |
